Measured values published in patent publication US12012411B2, “Viral replication inhibitors” (Katholieke Universiteit Leuven, priority 2011, dated 2024).
Like-named read-outs stand apart in the source and are kept apart here.

How the values were obtained:
[1] = test system: DENV-3 strain H87 prototype; assay: Antiviral activity against DENV-3 in Vero-B cells (viral RNA load by RT-qPCR); format: cell-based, Dengue virus
DENV-2 NGC = assay: Antiviral activity against DENV-2 NGC in Vero-B cells (viral RNA load by RT-qPCR); format: cell-based, Dengue virus; settings: DENV-2 in Vero-B cells, inhibition of viral RNA replication by 50% (Table 3)
[2] = test system: DENV-4 strain Dak HD 34 460; assay: Antiviral activity against DENV-4 in Vero-B cells (viral RNA load by RT-qPCR); format: cell-based, Dengue virus
[3] = test system: DENV-1 Djibouti strain D1/H/IMTSSA/98/606; assay: Antiviral activity against DENV-1 in Vero-B cells (viral RNA load by RT-qPCR); format: cell-based, Dengue virus
[4] = test system: uninfected quiescent Vero-B cells; assay: Cytotoxic assay in uninfected quiescent Vero-B cells (MTS/PMS); settings: 4 days (Table 3)

Compound | EC50 [1] | EC50 (DENV-2 NGC) | EC50 [2] | EC50 [3] | CC50 [4] | EC50 ([2]; Dengue virus, DENV4, Vero B) | EC50 (DENV-2 NGC; Dengue virus, DENV2, Vero B) | EC50 ([3]; Dengue virus, DENV1, Vero B) | EC50 ([1]; Dengue virus, DENV3, Vero B)
COc1cncc(NC(C(=O)c2c[nH]c3ccccc23)c2ccccc2)c1 (single isomer, unassigned) [CPD-300] | 21.1 µM | 1.29 µM | 4.13 µM | 5.29 µM | 50 µM |  |  |  | 
COc1cncc(NC(C(=O)c2c[nH]c3ccc(F)cc23)c2ccc(OC)nc2)c1 (single isomer, unassigned) [CPD-323] | 4.99 µM | 0.35 µM |  | 3.62 µM | 58 µM |  |  |  | 
COc1cccc(NC(C(=O)c2c[nH]c3ccccc23)c2cc3ccccn3n2)c1 (single isomer, unassigned) [CPD-324] | 0.19 µM | 0.01 µM |  | 0.27 µM | 30 µM | 5.32 µM |  |  | 
COc1cccc(NC(C(=O)c2c[nH]c3ccccc23)c2cc3ccccn3n2)c1 (single isomer, unassigned) [CPD-325] | 1.84 µM | 0.09 µM | 7.16 µM | 0.87 µM | 68 µM |  |  |  | 
COc1cc(NC(C(=O)c2c[nH]c3ccccc23)c2ccccc2)cc(OC)c1 (single isomer, unassigned) [CPD-326] | 0.09 µM | 0.001 µM |  | 0.05 µM | 13 µM | 1.89 µM |  |  | 
COc1cc(NC(C(=O)c2c[nH]c3ccccc23)c2ccccc2)cc(OC)c1 (single isomer, unassigned) [CPD-327] | 4.61 µM | 0.35 µM | 2.25 µM | 1.42 µM | 11 µM |  |  |  | 
COc1cccc(NC(C(=O)c2c[nH]c3ccccc23)c2ccncc2)c1 (stereo not drawn) [CPD-020] |  |  |  |  | 16 µM |  | 0.14 µM | 15.1 µM | 
COc1cccc(NC(C(=O)c2c[nH]c3ccccc23)c2ccsc2)c1 (stereo not drawn) [CPD-027] |  |  |  |  | 15 µM | 3.7 µM | 0.13 µM | 2.1 µM | 9.9 µM
COc1cccc(NC(C(=O)c2c[nH]c3ccccc23)c2ccc(C#N)cc2)c1 (stereo not drawn) [CPD-036] |  |  |  |  | 14 µM | 5.85 µM | 0.04 µM | 2.43 µM | 3.42 µM
COc1cncc(NC(C(=O)c2c[nH]c3ccccc23)c2ccccc2)c1 (stereo not drawn) [CPD-067] |  |  |  |  | 20 µM |  | 0.04 µM | < 0.5 µM | 1.2 µM
COc1cccc(NC(C(=O)c2c[nH]c3cc(Cl)ccc23)c2ccccc2)c1 (stereo not drawn) [CPD-118] |  |  |  |  | 13 µM |  | 0.01 µM | 0.44 µM | 3.68 µM
COc1cccc(NC(C(=O)c2c[nH]c3ccccc23)c2cccc(C)c2)c1 (stereo not drawn) [CPD-138] |  |  |  |  | 20 µM |  | 0.27 µM | 3.21 µM | 6.52 µM
COc1cc(NC(C(=O)c2c[nH]c3ccccc23)c2ccccc2)cc(OCCN(C)C)c1 (stereo not drawn) [CPD-243] |  |  |  |  | 13 µM |  | 1.69 µM |  | 
COc1cncc(NC(C(=O)c2c[nH]c3ccccc23)c2ccccc2)n1 (stereo not drawn) [CPD-252] |  |  |  |  | 68 µM | 2.29 µM | 0.48 µM |  | 12.6 µM
COc1cccc(NC(C(=O)c2c[nH]c3ccccc23)c2ccccc2)n1 (stereo not drawn) [CPD-277] |  |  |  |  | 16 µM |  | 0.29 µM |  | 
COc1cccc(NC(C(=O)c2c[nH]c3ccccc23)c2ccccc2C)c1 (stereo not drawn) [CPD-348] |  |  |  |  | 14 µM | 3.75 µM | 0.1 µM |  | 
COc1cc(NC(C(=O)c2c[nH]c3ccc(CO)cc23)c2ccccc2)cc(OC)c1 (stereo not drawn) [CPD-351] |  |  |  |  | 65 µM | 9.58 µM | 0.11 µM |  | 2.02 µM
COc1cc(NC(C(=O)c2c[nH]c3cccc(CO)c23)c2ccccc2)cc(OC)c1 (stereo not drawn) [CPD-352] |  |  |  |  | 71 µM | 8.6 µM | 0.29 µM |  | 3.03 µM
COc1cc(NC(C(=O)c2c[nH]c3ccc(CCCO)cc23)c2ccccc2)cc(OC)c1 (stereo not drawn) [CPD-353] |  |  |  |  | 56 µM | 7.18 µM | 0.1 µM |  | 0.17 µM
COc1cc(NC(C(=O)c2c[nH]c3cccc(CCCO)c23)c2ccccc2)cc(OC)c1 (stereo not drawn) [CPD-357] |  |  |  |  | 55 µM |  | 1.35 µM |  | 
COc1cc(NC(C(=O)c2c[nH]c3ccccc23)c2ccccc2)cc(OCCCO)c1 (stereo not drawn) [CPD-361] |  |  |  |  | 50 µM |  | 0.09 µM |  | 
